pIC50: −log10 of the molar value.
Molecular target: Protein-arginine deiminase type-4 (Homo sapiens) (UniProt Q9UM07)
Test: IC50 against protein arginine deiminase 4 – biochemical, fluorescence readout, dose response (AID 492970)
Settings: recombinant PAD4, BAEE citrulline colorimetric readout

Chain of Protein-arginine deiminase type-4 (Homo sapiens) (Q9UM07 whole entry, looked up): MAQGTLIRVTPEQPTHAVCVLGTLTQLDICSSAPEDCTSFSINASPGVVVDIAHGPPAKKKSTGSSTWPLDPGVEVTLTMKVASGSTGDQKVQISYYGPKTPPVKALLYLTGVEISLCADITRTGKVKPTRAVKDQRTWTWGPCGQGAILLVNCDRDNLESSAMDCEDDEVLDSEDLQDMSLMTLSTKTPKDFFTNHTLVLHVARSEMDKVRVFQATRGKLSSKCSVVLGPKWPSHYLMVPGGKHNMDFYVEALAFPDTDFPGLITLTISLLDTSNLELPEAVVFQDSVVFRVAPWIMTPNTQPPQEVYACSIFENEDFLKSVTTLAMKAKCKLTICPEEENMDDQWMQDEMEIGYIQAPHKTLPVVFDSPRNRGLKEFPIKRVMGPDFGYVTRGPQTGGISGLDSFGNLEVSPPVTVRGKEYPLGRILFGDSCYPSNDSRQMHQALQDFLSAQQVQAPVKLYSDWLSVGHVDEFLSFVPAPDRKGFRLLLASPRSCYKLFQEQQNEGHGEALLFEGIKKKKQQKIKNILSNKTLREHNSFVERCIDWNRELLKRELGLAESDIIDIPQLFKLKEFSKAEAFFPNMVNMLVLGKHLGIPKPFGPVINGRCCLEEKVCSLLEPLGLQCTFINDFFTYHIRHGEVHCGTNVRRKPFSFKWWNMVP

COC1=C(N)C(=O)c2nc(-c3nc(C(=O)O)c(C)c(-c4ccc(OC)c(OC)c4O)c3N)ccc2C1=O
pIC50: 5.60
